Patent US11840686B2, “Modulation of prekallikrein (PKK) expression” (Ionis Pharmaceuticals, Inc., priority 2013, dated 2023)
Strand notation (5' to 3'): a small letter for the sugar, then the base; units joined by * are phosphorothioate-linked, units joined directly phosphodiester-linked; [ ] holds rarer units or linkages, { } end groups; capitals alone tell only the bases. e = 2'-O-(2-methoxyethyl) (MOE); [5mC] = 5-methylcytosine; d = 2'-deoxy (DNA)

Test system: human PKK mRNA
Assay: Antisense inhibition of human PKK mRNA in HepaRG cells, 5,000 nM (Example 2)
Type: cell-based
Summary of the method: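 HepaRG cells, 20,000 per well, were electroporated with 5,000 nM MOE gapmer (phosphorothioate, 5-methylcytosine) and incubated about 24 hours. PKK mRNA was quantified by qRT-PCR with primer probe set RTS3454, normalized to RIBOGREEN total RNA, and expressed as percent inhibition versus untreated controls.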

[1] = HepaRG cells, electroporation, 5,000 nM antisense oligonucleotide, approx. 24 hours, primer probe set RTS3454, relative to untreated control cells, Table 11
[2] = Table 9 experiment, HepaRG cells, 20,000 cells per well, electroporation with 5,000 nM antisense oligonucleotide, approx. 24 hours, PKK mRNA by RT-PCR (RTS3454), relative to untreated control cells
[3] = Table 10 experiment, HepaRG cells, 20,000 cells per well, electroporation with 5,000 nM antisense oligonucleotide, approx. 24 hours, PKK mRNA by RT-PCR (RTS3454), relative to untreated control cells
[4] = HepaRG cells, 5,000 nM antisense oligonucleotide, 5-10-5 gapmers, Table 17
[5] = Table 13, human PKK mRNA in HepaRG cells, 5-10-5 gapmers
[6] = HepaRG cells, 5,000 nM antisense oligonucleotide, 5-10-5 gapmers, Table 16
[7] = Table 8, HepaRG cells, electroporation with 5,000 nM antisense oligonucleotide, approx. 24 hours, PKK mRNA by RT-PCR (RTS3454), relative to untreated control cells
[8] = HepaRG cells, electroporation with 5,000 nM antisense oligonucleotide, approximately 24 hours, PKK mRNA by RT-PCR (RTS3454), relative to untreated control cells, Table 5 experiment
[9] = HepaRG cells, electroporation with 5,000 nM antisense oligonucleotide, approximately 24 hours, PKK mRNA by RT-PCR (RTS3454), relative to untreated control cells, Table 6 experiment
[10] = human PKK mRNA in HepaRG cells, 5-10-5 gapmers, Table 14
[11] = Table 7, HepaRG cells, electroporation with 5,000 nM antisense oligonucleotide, approx. 24 hours, PKK mRNA by RT-PCR (RTS3454), relative to untreated control cells
[12] = HepaRG cells, electroporation, 5,000 nM antisense oligonucleotide, approx. 24 hours, primer probe set RTS3454, relative to untreated control cells, Table 12

Substance: 546362 (antisense eT*e[5mC]*eA*eT*eG*d[5mC]*dT*dG*dG*dT*dG*dA*d[5mC]*dT*dG*e[5mC]*eA*eT*e[5mC]*eT) [compound 546362]
- % inhibition [1]: 71%

Substance: 547481 (antisense e[5mC]*e[5mC]*eT*eT*e[5mC]*dT*dT*dT*dA*dT*dA*dG*d[5mC]*d[5mC]*dA*eG*e[5mC]*eA*e[5mC]*eA) [compound 547481]
- % inhibition [2]: 71%
- % inhibition [3]: 77%

Substance: 547736 (eT*eG*eG*eT*eA*dG*dG*dA*dT*dT*dG*dG*dT*dG*dG*eT*eG*eG*eG*eA; antisense) [compound 547736]
- % inhibition [4]: 54%

Substance: 546732 (eG*eG*eA*eT*eT*dT*dG*dG*d[5mC]*d[5mC]*d[5mC]*dT*dG*dA*dG*e[5mC]*e[5mC]*e[5mC]*e[5mC]*eA; antisense) [compound 546732]
- % inhibition [5]: 14%

Substance: 547710 (antisense eT*eG*e[5mC]*eG*eG*dT*dT*dA*dT*dA*dT*dG*dG*dG*d[5mC]*eT*eG*eA*eA*eG) [compound 547710]
- % inhibition [6]: 85%

Substance: 546277 (eT*eG*eT*eG*eT*d[5mC]*d[5mC]*d[5mC]*dA*dT*dA*d[5mC]*dG*d[5mC]*dA*eA*eT*e[5mC]*e[5mC]*eT; antisense) [compound 546277]
- % inhibition [7]: 90%

Substance: 547299 (antisense eA*eA*eA*e[5mC]*eT*dG*dA*dA*dT*dA*dG*d[5mC]*dA*dA*dA*e[5mC]*eA*e[5mC]*e[5mC]*eT) [compound 547299]
- % inhibition [8]: 76%

Substance: 547702 (antisense eA*e[5mC]*eA*eT*e[5mC]*dA*d[5mC]*dT*dG*dT*dA*d[5mC]*d[5mC]*dT*dA*eT*eA*eA*e[5mC]*eT) [compound 547702]
- % inhibition [6]: 44%

Substance: 546174 (antisense e[5mC]*e[5mC]*eT*eG*eT*dT*d[5mC]*dG*dA*dT*dG*dT*dA*d[5mC]*dT*eT*eT*eT*eG*eG) [compound 546174]
- % inhibition [9]: 74%

Substance: 546824 (eG*eT*eA*e[5mC]*eT*dA*dG*dT*dT*dT*d[5mC]*d[5mC]*dT*dA*dT*eA*eA*e[5mC]*eT*eG; antisense) [compound 546824]
- % inhibition [5]: 79%

Substance: 546192 (antisense eA*eA*eT*eT*eG*dA*d[5mC]*dT*d[5mC]*d[5mC]*dT*d[5mC]*dT*d[5mC]*dA*eT*eA*eT*e[5mC]*eA) [compound 546192]
- % inhibition [9]: 51%

Substance: 546865 (eT*eA*eT*eA*eA*d[5mC]*dT*dA*dT*dA*dA*d[5mC]*dA*dA*dT*eA*eT*e[5mC]*eA*e[5mC]; antisense) [compound 546865]
- % inhibition [10]: 0%

Substance: 546860 (e[5mC]*eT*eA*eG*eT*dT*dT*d[5mC]*d[5mC]*dT*dA*dT*dA*dA*d[5mC]*eT*eA*eT*eA*eA; antisense) [compound 546860]
- % inhibition [10]: 36%

Substance: 547730 (eG*eA*eT*eT*eG*dG*dT*dG*dG*dT*dG*dG*dG*dA*dT*eT*eG*eG*eT*eG; antisense) [compound 547730]
- % inhibition [4]: 60%

Substance: 547661 (eT*eA*eA*e[5mC]*eT*dA*dT*dA*dA*d[5mC]*dA*dG*dT*dA*dT*e[5mC]*eA*e[5mC]*e[5mC]*eG; antisense) [compound 547661]
- % inhibition (human PKK mRNA, HepaRG cells, 5-10-5 motif oligonucleotides targeting SEQ ID NO: 1 and 10): 80%

Substance: 547681 (antisense eA*eA*eT*eA*eT*d[5mC]*dA*d[5mC]*dT*dG*dT*dA*d[5mC]*d[5mC]*dT*eA*eT*eA*eT*e[5mC]) [compound 547681]
- % inhibition [6]: 6%

Substance: 546200 (antisense eA*eA*eA*eA*e[5mC]*dT*dG*dG*d[5mC]*dA*dG*d[5mC]*dG*dA*dA*eT*eG*eT*eT*eA) [compound 546200]
- % inhibition [9]: 91%

Substance: 547561 (eA*eA*eG*eG*eG*dA*dA*dA*dT*dT*dA*dG*dA*dG*dG*e[5mC]*eA*eG*eG*e[5mC]; antisense) [compound 547561]
- % inhibition [5]: 57%

Substance: 547737 (eT*eG*eG*eT*eG*dG*dT*dG*dG*dG*dA*dT*dT*dG*dG*eT*eG*e[5mC]*eT*eG; antisense) [compound 547737]
- % inhibition [4]: 59%

Substance: 546224 (antisense eT*eA*eG*eA*eA*dT*dG*dT*dA*dA*dA*dG*dA*dA*dG*eA*eG*eG*e[5mC]*eA) [compound 546224]
- % inhibition [11]: 65%

Substance: 547764 (antisense e[5mC]*e[5mC]*eA*e[5mC]*e[5mC]*dT*dT*d[5mC]*dT*dT*dA*d[5mC]*dA*dT*dA*eT*eG*e[5mC]*eT*eA) [compound 547764]
- % inhibition [4]: 24%

Substance: 546154 (eT*eG*eG*e[5mC]*eA*dG*dT*dA*dT*dT*dG*dG*dG*d[5mC]*dA*eT*eT*eT*eG*eG; antisense) [compound 546154]
- % inhibition [8]: 85%

Substance: 548778 (antisense eA*eT*eA*eA*d[5mC]*dA*dG*dT*dA*dT*d[5mC]*dA*d[5mC]*eT*eG*eT*eA) [compound 548778]
- % inhibition (human PKK mRNA, HepaRG cells, 5,000 nM antisense oligonucleotide, Table 18): 20%

Substance: 547309 (antisense e[5mC]*eT*eT*eT*e[5mC]*dA*dA*dG*dA*dA*dG*d[5mC]*dA*dA*d[5mC]*e[5mC]*eA*eA*eA*e[5mC]) [compound 547309]
- % inhibition [8]: 71%

Substance: 547574 (eA*e[5mC]*eA*e[5mC]*eG*d[5mC]*dA*d[5mC]*dA*dG*dG*dT*d[5mC]*d[5mC]*d[5mC]*eA*eG*eG*eG*e[5mC]; antisense) [compound 547574]
- % inhibition [5]: 51%

Substance: 546808 (eA*eA*eA*eA*eT*dG*dA*d[5mC]*dA*d[5mC]*d[5mC]*dA*dA*dA*dA*eT*eT*e[5mC]*eG*e[5mC]; antisense) [compound 546808]
- % inhibition [5]: 0%

Substance: 547338 (antisense eT*e[5mC]*eA*eA*e[5mC]*dT*d[5mC]*d[5mC]*dT*dT*dT*dA*dT*dA*dA*eA*eT*eG*eT*e[5mC]) [compound 547338]
- % inhibition [9]: 71%

Substance: 547508 (antisense e[5mC]*e[5mC]*e[5mC]*e[5mC]*eA*dG*dG*d[5mC]*dT*d[5mC]*dA*dG*dA*dA*dT*eT*eT*eG*eA*e[5mC]) [compound 547508]
- % inhibition [1]: 69%

Substance: 546839 (e[5mC]*e[5mC]*eT*eA*eT*dA*dA*d[5mC]*dT*d[5mC]*dT*dA*dA*d[5mC]*dA*eG*eT*eA*eT*e[5mC]; antisense) [compound 546839]
- % inhibition [5]: 47%

Substance: 546329 (antisense e[5mC]*e[5mC]*eT*eT*e[5mC]*dG*dA*dG*dA*dA*dG*d[5mC]*d[5mC]*d[5mC]*d[5mC]*eA*eT*e[5mC]*e[5mC]*eG) [compound 546329]
- % inhibition [2]: 18%
- % inhibition [3]: 8%

Substance: 547619 (antisense eT*e[5mC]*e[5mC]*eT*eA*dT*dA*dA*d[5mC]*dA*dG*dT*dA*dT*d[5mC]*eA*e[5mC]*eT*eG*eT) [compound 547619]
- % inhibition [10]: 70%

Substance: 547544 (antisense eT*e[5mC]*eG*e[5mC]*e[5mC]*dT*dT*dT*dG*dT*dG*dA*dT*dG*d[5mC]*eG*eA*eT*eT*eT) [compound 547544]
- % inhibition [12]: 15%

Substance: 548715 (DNA eA*eT*e[5mC]*dA*d[5mC]*dT*dG*dT*dA*d[5mC]*dT*dA*dG*eT*eT*eT; antisense) [compound 548715]
- % inhibition (HepaRG cells, 5,000 nM antisense oligonucleotide, human PKK mRNA, Table 18): 0%

Substance: 546259 (eA*e[5mC]*eT*eG*eA*d[5mC]*dA*dG*d[5mC]*dG*dA*dA*dT*d[5mC]*dA*eT*e[5mC]*eT*eT*eT; antisense) [compound 546259]
- % inhibition [7]: 86%

Substance: 547333 (antisense eT*eG*eT*e[5mC]*eT*d[5mC]*dG*dA*dT*dG*dG*d[5mC]*dA*dA*dG*e[5mC]*eA*e[5mC]*eT*eT) [compound 547333]
- % inhibition [9]: 76%

Substance: 546494 (eG*e[5mC]*eA*eT*eA*d[5mC]*dT*d[5mC]*dG*d[5mC]*d[5mC]*dT*dT*dT*dG*eT*eG*eA*e[5mC]*eT; antisense) [compound 546494]
- % inhibition [12]: 67%

Substance: 547010 (eG*eA*eA*eT*eT*dG*dG*dT*dG*dG*dT*dG*dG*dG*dA*eT*eT*eG*eG*eT; antisense) [compound 547010]
- % inhibition [4]: 39%

Substance: 547292 (antisense eT*eA*e[5mC]*eA*eT*dG*dG*dA*dA*dG*d[5mC]*dT*dA*d[5mC]*dA*eT*e[5mC]*e[5mC]*e[5mC]*e[5mC]) [compound 547292]
- % inhibition [8]: 60%

Substance: 546218 (antisense eT*eG*eG*eT*e[5mC]*d[5mC]*dG*dA*d[5mC]*dA*d[5mC]*dA*d[5mC]*dA*dA*eA*eA*eG*e[5mC]*eA) [compound 546218]
- % inhibition [11]: 71%
